Measurements: PubChem BioAssay AID2060603 (Molecular Pharmacology Branch, DTP, NCI, 2025)
pIC50: −log10 of the molar value. Several values for one entry are separate records, joined by “and”; a condition that tells them apart may be missing. Equal values may be shown once. Blank lines part the entries; values can stand above or below the compound they belong to.

Tested on: 422866-222-R5-J1-PDC spheroid viability
Experiment: Anticancer human tumor 422866-222-R5-J1-PDC patient-derived pancreatic adenocarcinoma cell line growth inhibition [CLK]
Settings: spheroids with HUVEC and MSC; for viability, T/C: stronger effect = lower value
Outline: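 Patient-derived tumor cells grown as complex spheroids with HUVEC endothelial cells and mesenchymal stem cells, treated with drug combinations. Concentrations descend in half-log steps from near clinical Cmax, or from 10 microM if Cmax unknown.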

[1] = curve of first compound, second compound 0.0316 µM
[2] = curve of first compound, second compound 0.1 µM
[3] = curve of first compound, second compound 0.316 µM
[4] = curve of first compound, second compound 1 µM
[5] = curve of first compound, second compound 3.16 µM
[6] = curve of first compound, second compound 10 µM
[7] = second compound 0.0316 µM, first compound 0.0316 µM
[8] = second compound 0.0316 µM, first compound 0.1 µM
[9] = second compound 0.0316 µM, first compound 0.316 µM
[10] = second compound 0.0316 µM, first compound 1 µM
[11] = second compound 0.0316 µM, first compound 3.16 µM
[12] = second compound 0.0316 µM, first compound 10 µM
[13] = second compound 0.1 µM, first compound 0.0316 µM
[14] = second compound 0.1 µM, first compound 0.1 µM
[15] = second compound 0.1 µM, first compound 0.316 µM
[16] = second compound 0.1 µM, first compound 1 µM
[17] = second compound 0.1 µM, first compound 3.16 µM
[18] = second compound 0.1 µM, first compound 10 µM
[19] = second compound 0.316 µM, first compound 0.0316 µM
[20] = second compound 0.316 µM, first compound 0.1 µM
[21] = second compound 0.316 µM, first compound 0.316 µM
[22] = second compound 0.316 µM, first compound 1 µM
[23] = second compound 0.316 µM, first compound 3.16 µM
[24] = second compound 0.316 µM, first compound 10 µM
[25] = second compound 1 µM, first compound 0.0316 µM
[26] = second compound 1 µM, first compound 0.1 µM
[27] = second compound 1 µM, first compound 0.316 µM
[28] = second compound 1 µM, first compound 1 µM
[29] = second compound 1 µM, first compound 3.16 µM
[30] = second compound 1 µM, first compound 10 µM
[31] = second compound 3.16 µM, first compound 0.0316 µM
[32] = second compound 3.16 µM, first compound 0.1 µM
[33] = second compound 3.16 µM, first compound 0.316 µM
[34] = second compound 3.16 µM, first compound 1 µM
[35] = second compound 3.16 µM, first compound 3.16 µM
[36] = second compound 3.16 µM, first compound 10 µM
[37] = second compound 10 µM, first compound 0.0316 µM
[38] = second compound 10 µM, first compound 0.1 µM
[39] = second compound 10 µM, first compound 0.316 µM
[40] = second compound 10 µM, first compound 1 µM
[41] = second compound 10 µM, first compound 3.16 µM
[42] = second compound 10 µM, first compound 10 µM
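Note: spheroids exposed to agents for seven days before readout.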

Compound: Cn1ncnc1[C@H]1c2n[nH]c(=O)c3cc(F)cc(c23)N[C@@H]1c1ccc(F)cc1
viability, T/C (compound 0.000316 µM): 86.9% and 103%
viability, T/C (compound 0.001 µM): 110% and 95.5%
viability, T/C (compound 0.00316 µM): 97% and 99.8%
viability, T/C (compound 0.01 µM): 101% and 87.8%
viability, T/C (compound 0.0316 µM): 91.4%
viability, T/C (compound 0.1 µM): 85% and 87.1%
pIC50 (curve of compound): < 7.00

Compound: O=c1[nH]cc(F)c(=O)[nH]1 + CN1CCN(c2cc(C(=O)Nc3cc4cc(-c5cnn(C)c5)ccc4cn3)ccn2)CC1
pIC50 [1]: < 5.00
pIC50 [2]: < 5.00
pIC50 [3]: < 5.00
pIC50 [4]: > 7.50
pIC50 [5]: > 7.50
pIC50 [6]: > 7.50
viability, T/C [7]: 116%
viability, T/C [8]: 129%
viability, T/C [9]: 114%
viability, T/C [10]: 95.6%
viability, T/C [11]: 86.9%
viability, T/C [12]: 77.1%
viability, T/C [13]: 125%
viability, T/C [14]: 104%
viability, T/C [15]: 108%
viability, T/C [16]: 90.5%
viability, T/C [17]: 84.7%
viability, T/C [18]: 91%
viability, T/C [19]: 90.4%
viability, T/C [20]: 100%
viability, T/C [21]: 91.9%
viability, T/C [22]: 96.1%
viability, T/C [23]: 80.7%
viability, T/C [24]: 80.6%
viability, T/C [25]: 24.2%
viability, T/C [26]: 19.1%
viability, T/C [27]: 25.6%
viability, T/C [28]: 17.9%
viability, T/C [29]: 23.7%
viability, T/C [30]: 22.5%
viability, T/C [31]: 8.44%
viability, T/C [32]: 10.5%
viability, T/C [33]: 9.21%
viability, T/C [34]: 8.88%
viability, T/C [35]: 10.5%
viability, T/C [36]: 9.67%
viability, T/C [37]: 1.68%
viability, T/C [38]: 1.08%
viability, T/C [39]: 0.97%
viability, T/C [40]: 1.08%
viability, T/C [41]: 3.1%
viability, T/C [42]: 1.13%

Compound: CCc1c2c(nc3ccc(O)cc13)-c1cc3c(c(=O)n1C2)COC(=O)[C@]3(O)CC + CN1CCN(c2cc(C(=O)Nc3cc4cc(-c5cnn(C)c5)ccc4cn3)ccn2)CC1
pIC50 [1]: > 8.50
pIC50 [2]: 8.35
pIC50 [3]: > 8.50
pIC50 [4]: > 8.50
pIC50 [5]: > 8.50
pIC50 [6]: > 8.50
viability, T/C (second compound 0.0316 µM, first compound 0.00316 µM): 49.4%
viability, T/C (second compound 0.0316 µM, first compound 0.01 µM): 41.2%
viability, T/C [7]: 37.6%
viability, T/C [8]: 37.1%
viability, T/C [9]: 27.9%
viability, T/C [10]: 20.3%
viability, T/C (second compound 0.1 µM, first compound 0.00316 µM): 54%
viability, T/C (second compound 0.1 µM, first compound 0.01 µM): 42.3%
viability, T/C [13]: 34.8%
viability, T/C [14]: 40%
viability, T/C [15]: 24.7%
viability, T/C [16]: 24.3%
viability, T/C (second compound 0.316 µM, first compound 0.00316 µM): 52.9%
viability, T/C (second compound 0.316 µM, first compound 0.01 µM): 44.1%
viability, T/C [19]: 45.7%
viability, T/C [20]: 31.9%
viability, T/C [21]: 24.2%
viability, T/C [22]: 25.2%
viability, T/C (second compound 1 µM, first compound 0.00316 µM): 12.3%
viability, T/C (second compound 1 µM, first compound 0.01 µM): 12.7%
viability, T/C [25]: 12.4%
viability, T/C [26]: 14.1%
viability, T/C [27]: 30.5%
viability, T/C [28]: 24.3%
viability, T/C (second compound 3.16 µM, first compound 0.00316 µM): 6.01%
viability, T/C (second compound 3.16 µM, first compound 0.01 µM): 8.18%
viability, T/C [31]: 12.9%
viability, T/C [32]: 19%
viability, T/C [33]: 25.1%
viability, T/C [34]: 31.6%
viability, T/C (second compound 10 µM, first compound 0.00316 µM): 1.14%
viability, T/C (second compound 10 µM, first compound 0.01 µM): 0.8%
viability, T/C [37]: 2.73%
viability, T/C [38]: 2.68%
viability, T/C [39]: 4.83%
viability, T/C [40]: 5.54%

Second part, led by results:

pIC50 [1]: 6.84
pIC50 [2]: 6.76
pIC50 [3]: 7.07
pIC50 [4]: 7.31
pIC50 [5]: 7.49
pIC50 [6]: 7.20
Compound: CC(Nc1ccc2c(c1)OCCn1cc(N3C(=O)OCC3C(F)F)nc1-2)C(N)=O (stereo not given) + CNC(=O)c1ccc(Nc2nc(OC3CCCC3)c3c(-c4ccc5nc(C)oc5c4)c[nH]c3n2)c(OC)c1
viability, T/C [7]: 80.2%
viability, T/C [8]: 52.4%
viability, T/C [9]: 42.6%
viability, T/C [10]: 35.1%
viability, T/C [11]: 30.1%
viability, T/C [12]: 28.7%
viability, T/C [13]: 83.7%
viability, T/C [14]: 56.9%
viability, T/C [15]: 43.8%
viability, T/C [16]: 32.8%
viability, T/C [17]: 25.6%
viability, T/C [18]: 31.9%
viability, T/C [19]: 56.3%
viability, T/C [20]: 49.1%
viability, T/C [21]: 37%
viability, T/C [22]: 28.1%
viability, T/C [23]: 29.2%
viability, T/C [24]: 24.2%
viability, T/C [25]: 56.2%
viability, T/C [26]: 37.6%
viability, T/C [27]: 37.7%
viability, T/C [28]: 31%
viability, T/C [29]: 26.2%
viability, T/C [30]: 24.9%
viability, T/C [31]: 50.2%
viability, T/C [32]: 41.2%
viability, T/C [33]: 37.5%
viability, T/C [34]: 29.4%
viability, T/C [35]: 28.8%
viability, T/C [36]: 25.3%
viability, T/C [37]: 58.9%
viability, T/C [38]: 43%
viability, T/C [39]: 36.7%
viability, T/C [40]: 31.9%
viability, T/C [41]: 33.1%
viability, T/C [42]: 25.8%

pIC50 (curve of compound): < 5.00
Compound: CC(CO)NC(=O)c1cc(-c2ccc(Cl)cc2)nn(-c2cnn(C)c2)c1=O (stereo not given)
viability, T/C (compound 0.0316 µM): 93.7% and 89.7%
viability, T/C (compound 0.1 µM): 96.4% and 110%
viability, T/C (compound 0.316 µM): 90.4% and 96.5%
viability, T/C (compound 1 µM): 106% and 108%
viability, T/C (compound 3.16 µM): 96.3% and 107%
viability, T/C (compound 10 µM): 78.1% and 83%
